*1 amine or outer side, *2 acyl side, *3 side chain or, on linkers, in order; H or OH if unused. Where a SMILES comes first, the peptide text is derived from it. [ ]: non-standard residue; d: D form. The star is where a group is joined. hPhe = N[CH](CCc1ccccc1)C(=O)O; Morpholide = C1CN(*)CCO1; CO = O=C([*:1])[*:2]; CH2F = FC*
How the values were obtained:
[1] = tested on: PC12/HttN90Q103 cells; assay: ATPlite assay, rescue of HttN90Q103-induced cell death; assay type: cell-based, rat
From the text: (§1) In this stable PC12 line (PC12/HttN90Q103), transcription of the Htt transgene is driven by an ecdysone-regulated promoter such that the expression of HttN90Q103 can be turned on or off by the addition or removal of the non-steroidal ecdysone analog tebufenozide (teb).
(§2) Using the engineered PC12/HttN90Q103 cell line together with Perkin Elmer's ATPlite™ assay kit or CellTiter-Blue™ assay, a high throughput assay to screen small molecules for their ability to prevent mutant Htt exon 1-induced cell death was developed and optimized.
(§3) The following formulas were used to calculate mutant Htt-induced cytotoxicity and test compound rescue: % killing=[(un-induced−induced-DMSO treated)/un-induced]×100 % rescue=[(drug treated−induced-DMSO treated)/(un-induced−induced-DMSO treated)]×100
For single-agent ranking, the assay was performed in 384-well plates to obtain duplicate dose response curves in 12-step dilutions with a dosing ratio f=2 over 3 orders of magnitude. […]
(§4) Day 1—Add Compounds 4 hours post-induction • 1) Remove compound plates from dessicator. • 2) Using the PlateMate, prepare dilution plate with 100 μL per well of the complete cell medium at room temperature in clear untreated 384-well plates. • 3) Using the MiniTrak, make compound dilution plates: 1 μL from each well of stock plates into 100 μL of media in the dilution plate for a 1:100 dilution (10× stock in media). • 4) Using the MiniTrak, add 4.5 μL of the diluted stock to each well of cells in assay plates. • 5) Make positive control solution: dilute 20 mM stock of BOC-D-FMK in media for a 10× stock. • 6) Manually add 4.5 μL positive control to C1-N1. • 7) Incubate plates at 37° C. for three days. • (for ranking combinations, steps 5 and 6 are omitted as there is positive control on the compound plates)
Day 4—Perform ATPlite™ Assay • 1) Take plates out of the incubator. • 2) Using the PlateMate, add 40 μL of ATPlite™ 1-step solution (Perkin Elmer) to each well of the assay plates. • 3) Wait ten minutes to allow plates to dark-adapt. • 4) Read luminescence intensity in Wallac plate reader using […]

[2] = tested on: PC12/HttN90Q103 cells; assay: CellTiter-Blue assay, rescue of HttN90Q103-induced cell death; assay type: cell-based, rat; conditions: Rattus norvegicus
From the text: as §1, §2, §3
For single-agent ranking, the assay was performed in 384-well plates to obtain duplicate dose response curves in 12-step dilutions with a dosing ratio f=2 over 3 orders of magnitude.
The uncertainty of each fitted parameter was estimated from the range over which the change in reduced chi-squared was less than one, or less than minimum reduced chi-squared if that minimum exceeded one, to allow for underestimated σI errors.
as §4
Day 4—CellTiter-Blue™ assay • 1) Make solution of 5% CellTiter-Blue™ in Q103 media. • 2) Using the Multidrop, add 40 μL of 5% CellTiter-Blue™ solution to each well of the assay plates. • 3) Incubate plates with CellTiter-Blue™ at 37° C.

[3] = ATPlite, single agent, 250 nM tebufenozide induction
[4] = ATPlite, single agent, sigmoidal fit of 12-step dose response, read-out: EC50
[5] = Rattus norvegicus, PC-12, read-out: Max Effect (% rescue)
[6] = Rattus norvegicus, PC-12, ATPlite, single agent, 250 nM tebufenozide induction, read-out: Max Effect (% rescue)
[7] = Rattus norvegicus, PC-12, ATPlite, single agent, sigmoidal fit of 12-step dose response, read-out: EC50

Row | Compound | Emax [1, 6] [%] | EC50 [1, 7] [µM] | other results
1 | CC(=O)ON=C1C(=O)N(Cc2cc(Cl)ccc2Cl)c2ccc(Cl)cc21 [UCH-L1 inhibitor] |  |  | Max Effect (% rescue) [1, 3]: 21%; EC50 [1, 4]: 0.5 µM
2 | OC[C@H]1O[C@@H](n2cnc3cc(Cl)c(Cl)cc32)[C@H](O)[C@@H]1O [5,6-dichloro-1-β-D-ribofuranosylbenzimidazole] |  |  | EC50 ([1]; Rattus norvegicus, PC-12): 5.1 µM; Emax [1, 5]: 26%
3 | CC1CNCCN1S(=O)(=O)c1cccc2cnccc12 (centres unmarked) [1-(5-isoquinolinesulfonyl)-2-methylpiperazine] | 28 | 15.5 | 
4 | Nc1c2c(nc3ccccc13)CCCC2 [Tacrine] | 15 | 39.6 | 
5 | C=C1/C(=C\C=C2/CCC[C@]3(C)[C@@H]([C@H](C)CCCC(C)(C)O)CC[C@@H]23)C[C@@H](O)C[C@@H]1O [Calcitriol] |  |  | EC50 ([2]; PC-12): 0.01 µM; Emax ([2]; PC-12, read-out: Max Effect (% rescue)): 33%
6 | CC(C=NNC(=N)N)=NNC(=N)N [Methylglyoxal bis(guanylhydrazone)] | 79 | 7.7 | 
7 | Maduramicin NH4 |  |  | Max Effect (% rescue) [1, 3]: 19%; EC50 [1, 4]: 0.04 µM
8 | C=C[C@@]1(C)CC(=O)[C@]2(O)[C@@]3(C)[C@@H](O)CCC(C)(C)[C@@H]3[C@H](O)[C@H](OC(C)=O)[C@@]2(C)O1 [Forskolin] | 18 | 0.2 | 
9 | CC[C@@H](C(=O)[C@@H](C)[C@@H](O)[C@H](C)[C@@H]1O[C@@H]([C@@H](CC)C(=O)O)CC[C@@H]1C)[C@H]1O[C@]2(C=C[C@@H](O)[C@]3(CC[C@@](C)([C@H]4CC[C@](O)(CC)[C@H](C)O4)O3)O2)[C@H](C)C[C@@H]1C [Salinomycin] |  |  | EC50 ([1]; Rattus norvegicus, PC-12): 0.2 µM; Emax [1, 5]: 24%
10 | O=C(CF)C(CCc1ccccc1)NC(=O)C(Cc1ccccc1)NC(=O)N1CCOCC1 (centres unmarked) [BML-248, N-morpholineurea-phenylalanyl-homophenylalanylfluoromethyl ketone] ({Morpholide-CO}-Phe-[hPhe]-CH2F; configuration not given here) |  |  | Max Effect (% rescue) [1, 3]: 24%; EC50 [1, 4]: 7.1 µM
11 | CC(C)c1ccc2oc3nc(N)c(C(=O)O)cc3c(=O)c2c1 [Amlexanox] |  |  | EC50 ([1]; Rattus norvegicus, PC-12): 5.7 µM; Emax [1, 5]: 18%
12 | C[C@]12CCC(=O)C[C@@H]1CC[C@@H]1[C@@H]2CC[C@]2(C)[C@@H](O)CC[C@@H]12 [Androstanolone] |  |  | EC50 ([1]; Rattus norvegicus, PC-12): 8 µM; Emax [1, 5]: 15%
13 | COc1ccc2c(c1)/C(=C/c1cnc[nH]1)C(=O)N2 [SU9516, 3-[1-(3H-imidazol-4-yl)-meth-(Z)-ylidene]-5-methoxy-1,3-dihydro-indol-2-one] | 66 | 3.3 | 
14 | CC(C)[C@H](NC(=O)c1ccc2ccccc2n1)C(=O)N[C@@H](CC(=O)O)C(=O)COc1c(F)cccc1F [Q-VD-OPH] |  |  | Max Effect (% rescue) [1, 3]: 72%; EC50 [1, 4]: 0.6 µM
15 | Cc1ncc(CSSCc2cnc(C)c(O)c2CO)c(CO)c1O [Pyritinol] | 17 | 15.1 | 
16 | CN(CCOc1ccc(CC2SC(=O)NC2=O)cc1)c1ccccn1 (centres unmarked) [Rosiglitazone] | 13 | 8.5 | 
17 | CCCCC1C(=O)NN(c2ccccc2)C1=O (centres unmarked) [Mofebutazone] | 19 | 5.6 | 
18 | CN1CCN(C(=O)OC2c3nccnc3C(=O)N2c2ccc(Cl)cn2)CC1 (centres unmarked) [Zopiclone] |  |  | EC50 ([1]; Rattus norvegicus, PC-12): 6.7 µM; Emax [1, 5]: 25%
19 | CCN(CC)Cc1cc(Nc2ccnc3cc(Cl)ccc23)ccc1O [Amodiaquine] | 62 | 12.3 | 
20 | O=C1Cc2c([nH]c3ccc([N+](=O)[O-])cc23)-c2ccccc2N1 [Alsterpaullone] | 64 | 1.8 | 
21 | O=C1Nc2ccc3ncsc3c2/C1=C/c1cnc[nH]1 [PKR inhibitor] |  |  | Max Effect (% rescue) [1, 3]: 124%; EC50 [1, 4]: 1.2 µM
22 | O=C(/C=C/c1ccc(O)cc1)c1ccc(O)cc1O [Isoliquiritigenin] | 27 | 12.5 | 
23 | N[C@@H]1C[C@H]1c1ccccc1 (racemic) [Tranylcypromine] |  |  | Max Effect (% rescue) [1, 3]: 16%; EC50 [1, 4]: 2.2 µM
24 | O=S(=O)([O-])[O-].[O]=[V+2] [Vanadyl] |  |  | Max Effect (% rescue) [1, 3]: 19%; EC50 [1, 4]: 0.6 µM

Row | Compound | Emax [1, 6] [%] | EC50 [1, 7] [µM] | other results
25 | CC[C@@H](C(=O)O)[C@@H]1O[C@@H]([C@@H](C)[C@H](O)[C@H](C)C(=O)[C@H](CC)[C@H]2O[C@]3(C=C[C@@H](O)[C@]4(CC[C@@](C)([C@H]5CC[C@](O)(CC)[C@H](C)O5)O4)O3)[C@H](C)C[C@@H]2C)[C@@H](C)C[C@@H]1C [Narasin] | 15 | 0.1 | 
26 | O=S(=O)(c1cccc2cnccc12)N1CCCNCC1 [Fasudil] | 26 | 9.9 | 
27 | O=c1c(O)c(-c2ccc(O)c(O)c2)oc2cc(O)ccc12 [Fisetin] | 52 | 12.4 | 
28 | c1ccc(CN(CCN(Cc2ccccn2)Cc2ccccn2)Cc2ccccn2)nc1 [TPEN, N,N,N′,N′-tetrakis(2-pyridylmethyl)-ethylenediamine] | 15 | 3 | 
29 | N=C(N)c1ccc(/N=N/Nc2ccc(C(=N)N)cc2)cc1 [Diminazene] | 35 | 5.6 | 
30 | CO[C@@H]1C[C@@H](C[C@H]2CC[C@H](C)[C@H]([C@@H](C)C(=O)O)O2)O[C@]2(O[C@](C)([C@H]3CC[C@@](C)([C@@H]4O[C@@H]([C@H]5O[C@@](O)(CO)[C@H](C)C[C@@H]5C)C[C@@H]4C)O3)C[C@H]2C)[C@@H]1C [Nigericin] | 36 |  | 
31 | O=c1c(O)c(-c2ccc(O)c(O)c2)oc2cc(O)cc(O)c12 [Quercetin] | 23 | 16.4 | 
32 | O=C(Nc1cccc(C2=NCCN2)c1)Nc1cccc(C2=NCCN2)c1 [Imidocarb] | 24 | 15.9 | 
33 | CC(=O)C(=O)O [Pyruvate] | 5 | 1.2 | 
34 | O=C1Cc2c([nH]c3ccc(Br)cc23)-c2ccccc2N1 [Kenpaullone] | 87 | 4.7 | 
35 | NC1CCN(c2nc3c(cc2F)c(=O)c(C(=O)O)cn3-c2ccc(F)cc2F)C1 (centres unmarked) [Tosufloxacin] | 20 | 9.9 | 
36 | NC(=O)NO [Hydroxyurea] | 22 | 7.5 | 
37 | O=C(NO)c1ccccc1 [Benzohydroxamic acid] | 15 | 6.9 | 
38 | CCCC(CCC)C(=O)O [Divalproex] | 19 | 15.2 | 
39 | CC1=C(O)C(=O)C=C2C1=CC=C1[C@@]2(C)CC[C@@]2(C)[C@@H]3C[C@](C)(C(=O)O)CC[C@]3(C)CC[C@]12C [Celastrol] |  |  | EC50 ([1]; Rattus norvegicus, PC-12): 0.3 µM; Emax [1, 5]: 19%
40 | CC(=O)S[C@@H]1CC2=CC(=O)CC[C@]2(C)[C@H]2CC[C@@]3(C)[C@@H](CC[C@@]34CCC(=O)O4)[C@H]12 [Spironolactone] | 22 | 9.1 | 
41 | O=C1Nc2ccccc2/C1=C1/Nc2ccccc2/C1=N\O [Indirubin-3′-monooxime] |  |  | Max Effect (% rescue) [1, 3]: 30%; EC50 [1, 4]: 2.4 µM
42 | CCCC(=O)Nc1ncnc2c1ncn2[C@@H]1O[C@@H]2COP(=O)(O)O[C@H]2[C@H]1OC(=O)CCC [Bucladesine] | 18 | 19.6 | 
43 | CCN(CCO)CCCC(C)Nc1ccnc2cc(Cl)ccc12 (centres unmarked) [Hydroxychloroquine] | 29 | 5.2 | 
44 | O=c1c(O)c(-c2ccc(O)cc2)oc2cc(O)cc(O)c12 [Kaempferol] | 15 | 12.2 | 
45 | COC(=O)CC(NC(=O)OC(C)(C)C)C(=O)CF [Caspase inhibitor III (BOC-D-fmk)] |  |  | % rescue ([1]; 20 μM, positive control, 72 hours following tebufenozide induction): More than 50%; Max Effect (% rescue) [1, 3]: 119%; EC50 [1, 4]: 3.9 µM
46 | Nc1ncnc2c1c(I)cn2[C@@H]1C[C@H](N)[C@@H](O)[C@H]1O [Agent A-134974, N^7-[(1′R,2′S,3′R,4′S)-2′,3′-dihydroxy-4′-aminocyclopentyl]-4-amino-5-iodopyrrolopyrimidine] |  |  | Max Effect (% rescue) [1, 3]: 22%; EC50 [1, 4]: 13.3 µM
47 | CCN(CC)CCCC(C)Nc1ccnc2cc(Cl)ccc12 (centres unmarked) [Chloroquine] |  |  | EC50 ([1]; Rattus norvegicus, PC-12): 9.7 µM
48 | N#C/C(=C\c1ccc(O)c(O)c1)C(N)=O [Tyrphostin 46] |  |  | Max Effect (% rescue) [1, 3]: 23%; EC50 [1, 4]: 23.5 µM
